Assay results as given in patent publication US20190053492A1, “SUBSTITUTED PYRIDINE COMPOUNDS AS PESTICIDES” (Bayer CropScience Aktiengesellschaft, priority 2016, published 2019).
Like-named read-outs stand apart in the source and are kept apart here.

Columns and labels:
[1] = log P by HPLC on reversed-phase column (C 18), EEC Directive 79/831 Annex V.A8; type: physicochemical; settings: 55° C.; for LOGP_HCOOH: log P (HCOOH); for chromatographic logP: reversed-phase HPLC column (C 18)
Protocol: Temperature: 55° C. […] Called log P (HCOOH) in the table. […] Called log P (neutral) in the table.

[2] = test system: Phaedon cochleariae; test: Phaedon cochleariae spray test; type: in vivo; settings: after 7 days, Chinese cabbage leaf discs
Summary of the method: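 Chinese cabbage leaf discs sprayed with compound in acetone/DMF and emulsifier-containing water, then infested with mustard beetle larvae once dry. Efficacy in % scored after 7 days (100% = all larvae killed, 0% = none).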

[3] = test system: Spodoptera frugiperda; test: Spodoptera frugiperda spray test; type: in vivo; settings: after 7 days, maize leaf discs; for pest or weed control at 100 g/ha / pest or weed control at 500 g/ha: Spodoptera frugiperda, foliar, 168 h, read-out: efficacy (caterpillars killed)
Summary of the method: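 Maize leaf discs were sprayed with compound formulated in acetone/DMF and emulsifier-containing water, dried, then infested with Spodoptera frugiperda caterpillars. Percent kill was scored after 7 days, from 100% (all dead) to 0% (none dead).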

[4] = test system: Ctenocephalides felis; test: Ctenocephalides felis oral test; type: in vivo; settings: application rate 100 ppm in citrated cattle blood, after 2 days, adult cat fleas
Protocol: Ctenocephalides felis—Oral Test Solvent: dimethyl sulphoxide To produce a suitable active ingredient formulation, 10 mg of active ingredient are mixed with 0.5 ml of dimethyl sulphoxide. Dilution with citrated cattle blood gives the desired concentration. About 20 unfed adult cat fleas (Ctenocephalides felis) are placed into a chamber which is closed at the top and bottom with gauze. A metal cylinder whose bottom end is closed with parafilm is placed onto the chamber. The cylinder contains the blood/active ingredient formulation, which can be imbibed by the fleas through the parafilm membrane. After 2 days, the kill in % is determined. 100% means that all of the fleas have been killed; 0% means that none of the fleas have been killed.

[5] = acidic range pH 2.7, 0.1% aqueous formic acid and acetonitrile, reversed-phase column (C 18)
[6] = log P, neutral range, HPLC on reversed-phase column (C 18)
[7] = acidic range at pH 2.7, 0.1% aqueous formic acid and acetonitrile, HPLC on reversed-phase column (C 18)
[8] = pH 2.7, LC-MS acidic range, pH 2.7, 0.1% formic acid/acetonitrile, read-out: log P (acidic) / log P (HCOOH)
[9] = pH 7.8, LC-MS neutral range, pH 7.8, ammonium hydrogencarbonate/acetonitrile, read-out: log P (neutral)
[10] = log P (neutral), HPLC reversed-phase column (C 18)

SMILES	LOGP_HCOOH [1, 5]	efficacy (beetle larvae killed) ([2]; application rate 500 g/ha) [%]	efficacy (caterpillars killed) ([3]; application rate 500 g/ha) [%]	efficacy (kill in %) [4] [%]	LOGP_NEUTRAL [1, 6]	efficacy (caterpillars killed) ([3]; application rate 100 g/ha) [%]	other results
N#Cc1cccc(CNC(=O)c2cc(-c3ccc(C(F)(F)F)cc3)cc(NC(=O)C3CC3)n2)c1 [Example I-004]	3.83	100	100	100			
CC(=O)Nc1cc(-c2ccc(C(F)(F)F)cc2)cc(C(=O)NCc2ccc(C#N)cc2)n1 [Example I-017]	3.15	100	100	98	3.13		
N#CC1(NC(=O)c2cc(-c3ccc(C(F)(F)F)cc3)cc(NC(=O)C3CC3)n2)CC1 [Example I-041]	3.28	100	100	95	3.18	100	efficacy (beetle larvae killed) ([2]; application rate 100 g/ha): 100%
N#Cc1ccc(CNC(=O)c2cc(-c3ccc(OC(F)(F)F)cc3)cc(NC(=O)C3CC3)n2)cn1 [Example I-051]	3.49	100	100	100	3.37	100	efficacy (beetle larvae killed) ([2]; application rate 100 g/ha): 100%
O=C(NCc1ccc(C(F)(F)F)cc1F)c1cc(-c2ccc(OC(F)(F)F)cc2)cc(NC(=O)C2CC2)n1 [Example I-065]	4.80	83	100	95	4.74	100	
CC(C)C(=O)Nc1cc(-c2ccc(OC(F)(F)F)cc2)cc(C(=O)NC2(C#N)CC2)n1 [Example I-075]	3.58	100	100	100	3.47		
N#CC1(NC(=O)c2cc(-c3ccc(OC(F)(F)F)cc3)cc(NC(=O)C3CC3)n2)CC1 [Example I-076]	3.39	100	100	100	3.29	100	efficacy (beetle larvae killed) ([2]; application rate 100 g/ha): 100%
O=C(Cc1ccc(C(F)(F)F)cc1)Nc1cc(-c2ccc(C(F)(F)F)cc2)cc(C(=O)NC2CC2)n1 [Example I-088]	4.37		83	90	5.54	100	
O=C(NCc1ccc2c(c1)OC(F)(F)O2)c1cc(-c2ccc(OC(F)(F)F)cc2)cc(NC(=O)C2CC2)n1 [Example I-095]	4.79	83	100	95	4.61		
O=C(NCc1ccc([N+](=O)[O-])cc1F)c1cc(-c2ccc(OC(F)(F)F)cc2)cc(NC(=O)C2CC2)n1 [Example I-102]	4.29	100	100	100	4.16	83	efficacy (beetle larvae killed) ([2]; application rate 100 g/ha): 100%
N#CC1(NC(=O)c2cc(-c3ccc(OC(F)(F)F)cc3)cc(NC(=O)C3CC3)n2)CCC1 [Example I-109]	3.78	100	100	100	3.68		
N#Cc1ccc(CNC(=O)c2cc(-c3ccc(C(F)(C(F)(F)F)C(F)(F)F)cc3)cc(NC(=O)C3CC3)n2)cc1 [Example I-150]			100	95	4.41	100	LOGP_HCOOH [1, 7]: 4.51
O=C(NCC1CCCCC1)c1cc(-c2ccc(OC(F)(F)F)cc2)cc(NC(=O)C2CC2)n1 [Example I-167]				90	4.89		LOGP_HCOOH [1, 7]: 5.11
COC(=O)N(Cc1ccc(C#N)cc1)C(=O)c1cc(-c2ccc(OC(F)(F)F)cc2)cc(N(C(=O)OC)C(=O)C2CC2)n1 [Example I-232, Methyl (4-cyanobenzyl)({6-[(cyclopropylcarbonyl)(methoxycarbonyl)amino]-4-[4-(trifluoromethoxy)phenyl]pyridin-2-yl}carbonyl)carbamate]					4.31		LOGP_HCOOH [1, 7]: 4.30; chromatographic logP [1, 8]: 4.3; chromatographic logP [1, 9]: 4.31; pest or weed control at 100 g/ha ([3]; application rate 100 g/ha): 100%; pest or weed control at 500 g/ha ([3]; application rate 500 g/ha): 100%; pest or weed control at 100 ppm ([4]; Ctenocephalides felis, po, 48 h, read-out: efficacy (kill in %)): 100%
CCONC(=O)c1cc(-c2ccc(OC(F)(F)F)cc2)cc(NC(=O)C2CC2)n1 [Example I-235]	3.21	100		95			LOGP_NEUTRAL [1, 10]: 3.14
O=C(NC(=O)C1CC1)c1cc(-c2ccc(C(F)(F)C(F)(F)F)c(F)c2)cc(NC(=O)C2CC2)n1 [Example I-264, N-(Cyclopropylcarbonyl)-6-[(cyclopropylcarbonyl)amino]-4-[3-fluoro-4-(pentafluoroethyl)-phenyl]pyridine-2-carboxamide]	4.62						LOGP_NEUTRAL [1, 10]: 4.53; chromatographic logP [1, 8]: 4.62; chromatographic logP [1, 9]: 4.53; pest or weed control at 100 g/ha ([2]; Phaedon cochleariae, foliar, 168 h, application rate 100 g/ha, read-out: efficacy (beetle larvae killed)): 100%; pest or weed control at 500 g/ha ([2]; Phaedon cochleariae, foliar, 168 h, application rate 500 g/ha, read-out: efficacy (beetle larvae killed)): 100%; pest or weed control at 100 g/ha ([3]; application rate 100 g/ha): 100%; pest or weed control at 500 g/ha ([3]; application rate 500 g/ha): 100%
N#Cc1ccc(CNC(=O)c2cc(-c3c(Cl)cc(C(F)(F)C(F)(F)F)cc3Cl)cc(NC(=O)C3CC3)n2)cc1 [Example I-265]	4.51	100	100				
N#Cc1ccc(CNC(=O)c2cc(-c3c(Cl)cc(C(F)(F)C(F)(F)F)cc3Cl)cc(NC(=O)C3CC3)n2)cc1 [Example I-268]	4.05	83	100			100	efficacy (beetle larvae killed) ([2]; application rate 100 g/ha): 83%
Cc1cc(-c2cc(NC(=O)C3CC3)nc(C(=O)NCc3ccc(C#N)cc3)c2)ccc1C(F)(F)C(F)(F)F [Example I-270]	4.45	100	100				
N#Cc1ccc(CNC(=O)c2cc(-c3cc(F)c(C(F)(F)C(F)(F)F)c(F)c3)cc(NC(=O)C3CC3)n2)cc1 [Example I-271]	4.23	83	100				
N#Cc1ccc(CNC(=O)c2cc(-c3cc(F)c(C(F)(F)C(F)(F)F)c(F)c3F)cc(NC(=O)C3CC3)n2)cc1 [Example I-274]	4.28	100	100				
N#Cc1ccc(CNC(=O)c2cc(-c3c(Cl)cc(C(F)(F)C(F)(F)F)c(F)c3Cl)cc(NC(=O)C3CC3)n2)cc1 [Example I-276]	4.57	100	83				
O=C(NCc1ccncc1)c1cc(-c2ccc(C(F)(F)C(F)(F)F)c(F)c2)cc(NC(=O)C2CC2)n1 [Example I-277]	2.17	83	100			100	LOGP_NEUTRAL [1, 10]: 3.33
